Data from EP4803081A2.
Read-outs that look alike come from different tables or passages of the source.

Conditions: ester bond

CCn1c(-c2cc(N3CCN(C4CC4)CC3)cnc2[C@H](C)OC)c2c3cc(ccc31)C1=CCCN(C1)C[C@H](NC(=O)OC(C)(C)C)C(=O)N1CCC[C@H](N1)C(=O)OCC(C)(C)C2
ring closure, yield of all isomers (from CCn1c(-c2cc(N3CCN(C4CC4)CC3)cnc2[C@H](C)OC)c(CC(C)(C)CO)c2cc(C3=CCCN(C[C@H](NC(=O)OC(C)(C)C)C(=O)N4CCC[C@@H](C(=O)O)N4)C3)ccc21, EDCI/HOBt/DIPEA, DCM, 10.0 mM, 35.0 °C, 16.0 h): 53%

CCn1c(-c2cc(N3CCN(C(=O)OCc4ccccc4)CC3)cnc2[C@H](C)OC)c2c3cc(ccc31)-c1csc(n1)C[C@H](NC(=O)OC(C)(C)C)C(=O)N1CCC[C@H](N1)C(=O)OCC(C)(C)C2
ring closure, yield of all isomers (from CCn1c(-c2cc(N3CCN(C(=O)OCc4ccccc4)CC3)cnc2[C@H](C)OC)c(CC(C)(C)CO)c2cc(-c3csc(C[C@H](NC(=O)OC(C)(C)C)C(=O)N4CCC[C@@H](C(=O)O)N4)n3)ccc21, EDCI/HOBt/DIPEA, MeCN, 10.34 mM, 25.0 °C, 16.0 h): 55%

CCn1c(-c2cc(N3CCN4CCCC[C@@H]4C3)cnc2[C@H](C)OC)c2c3cc(ccc31)-c1cccc(c1)C[C@H](NC(=O)OC(C)(C)C)C(=O)N1CCC[C@H](N1)C(=O)OCC(C)(C)C2
ring closure, yield of all isomers (from CCn1c(-c2cc(N3CCN4CCCC[C@@H]4C3)cnc2[C@H](C)OC)c(CC(C)(C)CO)c2cc(-c3cccc(C[C@H](NC(=O)OC(C)(C)C)C(=O)N4CCC[C@@H](C(=O)O)N4)c3)ccc21, EDCI/HOBt/DIPEA, DCM, 5.81 mM, 25.0 °C, 16.0 h): 34%

CCn1c(-c2cc(N3CCN4CCCC[C@@H]4C3)cnc2[C@H](C)OC)c2c3cc(ccc31)C1=CCCN(C1)C[C@H](NC(=O)OC(C)(C)C)C(=O)N1CCC[C@H](N1)C(=O)OCC(C)(C)C2
ring closure, yield of all isomers (from CCn1c(-c2cc(N3CCN4CCCC[C@@H]4C3)cnc2[C@H](C)OC)c(CC(C)(C)CO)c2cc(C3=CCCN(C[C@H](NC(=O)OC(C)(C)C)C(=O)N4CCC[C@@H](C(=O)O)N4)C3)ccc21, EDC•HCl/HOBt/DIPEA, DCM, 11.3 mM, 0.0 °C, 16.0 h): 66%

CCn1c(-c2cc(N3CCN4CCC[C@@H]4C3)cnc2[C@H](C)OC)c2c3cc(ccc31)-c1cccc(c1)C[C@H](NC(=O)OC(C)(C)C)C(=O)N1CCC[C@H](N1)C(=O)OCC(C)(C)C2
ring closure, yield of all isomers (from CCn1c(-c2cc(N3CCN4CCC[C@@H]4C3)cnc2[C@H](C)OC)c(CC(C)(C)CO)c2cc(-c3cccc(C[C@H](NC(=O)OC(C)(C)C)C(=O)N4CCC[C@@H](C(=O)O)N4)c3)ccc21, EDCI/HOBt/DIPEA, DCM, 16.7 mM, 25.0 °C, 16.0 h): 42%

CCn1c(-c2cccnc2[C@H](C)OC)c2c3cc(ccc31)C1=CCCN(C1)CC(NC(=O)OC(C)(C)C)C(=O)N1CCC[C@H](N1)C(=O)OCC(C)(C)C2 (some centres unmarked)
ring closure, yield of all isomers (from CCn1c(-c2cccnc2[C@H](C)OC)c(CC(C)(C)CO)c2cc(C3=CCCN(CC(NC(=O)OC(C)(C)C)C(=O)N4CCC[C@@H](C(=O)O)N4)C3)ccc21, EDCI/HOBt/DIPEA, DCM, 7.14 mM, 30.0 °C, 16.0 h): 40%

CCn1c(-c2cc(N3CCN4CCCC[C@@H]4C3)cnc2[C@H](C)OC)c2c3cc(ccc31)-c1csc(n1)C[C@H](NC(=O)OC(C)(C)C)C(=O)N1CCC[C@H](N1)C(=O)OCC(C)(C)C2
ring closure, yield of all isomers (from CCn1c(-c2cc(N3CCN4CCCC[C@@H]4C3)cnc2[C@H](C)OC)c(CC(C)(C)CO)c2cc(-c3csc(C[C@H](NC(=O)OC(C)(C)C)C(=O)N4CCC[C@@H](C(=O)O)N4)n3)ccc21, EDCI/HOBt/DIPEA, DCM, 11.3 mM, 25.0 °C, 16.0 h): 49%

CCn1c(-c2cc(N3CCN4CCCC[C@@H]4C3)cnc2[C@H](C)OC)c2c3cc(ccc31)N1CCO[C@@H](C[C@H](NC(=O)OC(C)(C)C)C(=O)N3CCC[C@H](N3)C(=O)OCC(C)(C)C2)C1
ring closure, yield of all isomers (from CCn1c(-c2cc(N3CCN4CCCC[C@@H]4C3)cnc2[C@H](C)OC)c(CC(C)(C)CO)c2cc(N3CCO[C@@H](C[C@H](NC(=O)OC(C)(C)C)C(=O)N4CCC[C@@H](C(=O)O)N4)C3)ccc21, EDCI/HOBt/DIPEA, DMF, 11.2 mM, 25.0 °C, 16.0 h): 73%

CCn1c(-c2cccnc2[C@H](C)OC)c2c3cc(ccc31)N1CCO[C@@H](C[C@H](NC(=O)OCc3ccccc3)C(=O)N3CCC[C@H](N3)C(=O)OCC(C)(C)C2)C1
ring closure, yield of all isomers (from CCn1c(-c2cccnc2[C@H](C)OC)c(CC(C)(C)CO)c2cc(N3CCO[C@@H](C[C@H](NC(=O)OCc4ccccc4)C(=O)N4CCC[C@@H](C(=O)O)N4)C3)ccc21, EDCI/HOBt/DIPEA, DCM, 12.75 mM, 25.0 °C, 16.0 h): 66%

CC1(C)COC(=O)[C@@H]2CCCN(N2)C(=O)[C@@H](NC(=O)OC(C)(C)C)Cc2cccc(c2)-c2ccc3[nH]c(I)c(c3c2)C1
ring closure, yield of all isomers (from CC(C)(CO)Cc1c(I)[nH]c2ccc(-c3cccc(C[C@H](NC(=O)OC(C)(C)C)C(=O)N4CCC[C@@H](C(=O)O)N4)c3)cc12, EDCI/HOBt/DIPEA, DCM, 12.77 mM, 0.0 °C, 16.0 h): 79.8%

CCn1c(-c2cccnc2[C@H](C)OC)c2c3cc(ccc31)-c1csc(n1)C[C@H](NC(=O)OC(C)(C)C)C(=O)N1CCC[C@H](N1)C(=O)OCC(C)(C)C2
ring closure, yield of all isomers (from CCn1c(-c2cccnc2[C@H](C)OC)c(CC(C)(C)CO)c2cc(-c3csc(C[C@H](NC(=O)OC(C)(C)C)C(=O)N4CCC[C@@H](C(=O)O)N4)n3)ccc21, EDCI/HOBt/DIPEA, DCM, 12.65 mM, 25.0 °C, 16.0 h): 81%

CCn1c(-c2cc(N3CCN4CCOC[C@@H]4C3)cnc2[C@H](C)OC)c2c3cc(ccc31)-c1cccc(c1)C[C@H](NC(=O)OC(C)(C)C)C(=O)N1CCC[C@H](N1)C(=O)OCC(C)(C)C2
ring closure, yield of all isomers (from CCn1c(-c2cc(N3CCN4CCOC[C@@H]4C3)cnc2[C@H](C)OC)c(CC(C)(C)CO)c2cc(-c3cccc(C[C@H](NC(=O)OC(C)(C)C)C(=O)N4CCC[C@@H](C(=O)O)N4)c3)ccc21, EDCI/HOBt/DIPEA, DCM, 7.56 mM, 25.0 °C, 16.0 h): 81%

CO[C@@H](C)c1ncc(N2CCN(C3CC3)CC2)cc1-c1c2c3cc(ccc3n1CC(F)(F)F)N1CCO[C@@H](C[C@H](NC(=O)OC(C)(C)C)C(=O)N3CCC[C@H](N3)C(=O)OCC(C)(C)C2)C1
ring closure, yield of all isomers (from CO[C@@H](C)c1ncc(N2CCN(C3CC3)CC2)cc1-c1c(CC(C)(C)CO)c2cc(N3CCO[C@@H](C[C@H](NC(=O)OC(C)(C)C)C(=O)N4CCC[C@@H](C(=O)O)N4)C3)ccc2n1CC(F)(F)F, EDCI/HOBt/DIPEA, DCM, 9.22 mM, 25.0 °C, 16.0 h): 64%

CO[C@@H](C)c1ncc(N2CCN3CCOC[C@@H]3C2)cc1-c1c2c3cc(ccc3n1CC(F)(F)F)-c1cccc(c1)C[C@H](NC(=O)OC(C)(C)C)C(=O)N1CCC[C@H](N1)C(=O)OCC(C)(C)C2
ring closure, yield of all isomers (from CO[C@@H](C)c1ncc(N2CCN3CCOC[C@@H]3C2)cc1-c1c(CC(C)(C)CO)c2cc(-c3cccc(C[C@H](NC(=O)OC(C)(C)C)C(=O)N4CCC[C@@H](C(=O)O)N4)c3)ccc2n1CC(F)(F)F, EDCI/HOBt/DIPEA, DCM, 5.34 mM, 25.0 °C, 16.0 h): 98%

CCn1c(-c2cc(N3CCN(C4CC4)CC3)cnc2[C@H](C)OC)c2c3cc(ccc31)N1CCO[C@@H](C[C@H](NC(=O)OCc3ccccc3)C(=O)N3CCC[C@H](N3)C(=O)OCC(C)(C)C2)C1
ring closure, yield of all isomers (from CCn1c(-c2cc(N3CCN(C4CC4)CC3)cnc2[C@H](C)OC)c(CC(C)(C)CO)c2cc(N3CCO[C@@H](C[C@H](NC(=O)OCc4ccccc4)C(=O)N4CCC[C@@H](C(=O)O)N4)C3)ccc21, EDCI/HOBt/DIPEA, DCM, 11.25 mM, 30.0 °C, 16.0 h): 50%

CO[C@@H](C)c1ncc(N2CCN3CCCC[C@@H]3C2)cc1-c1c2c3cc(ccc3n1CC(F)(F)F)-c1cccc(c1)C[C@H](NC(=O)OC(C)(C)C)C(=O)N1CCC[C@H](N1)C(=O)OCC(C)(C)C2
ring closure, yield of all isomers (from CO[C@@H](C)c1ncc(N2CCN3CCCC[C@@H]3C2)cc1-c1c(CC(C)(C)CO)c2cc(-c3cccc(C[C@H](NC(=O)OC(C)(C)C)C(=O)N4CCC[C@@H](C(=O)O)N4)c3)ccc2n1CC(F)(F)F, EDCI/HOBt/DIPEA, DCM, 12.85 mM, 0.0 °C, 16.0 h): 65%

CO[C@@H](C)c1ncc(N2CCN(C3CC3)CC2)cc1-c1c2c3cc(ccc3n1CC(F)(F)F)-c1cccc(c1)C[C@H](NC(=O)OC(C)(C)C)C(=O)N1CCC[C@H](N1)C(=O)OCC(C)(C)C2
ring closure, yield of all isomers (from CO[C@@H](C)c1ncc(N2CCN(C3CC3)CC2)cc1-c1c(CC(C)(C)CO)c2cc(-c3cccc(C[C@H](NC(=O)OC(C)(C)C)C(=O)N4CCC[C@@H](C(=O)O)N4)c3)ccc2n1CC(F)(F)F, EDCI/HOBt/DIPEA, DCM, 108.7 mM, 25.0 °C, 16.0 h): 79%

CCn1c(-c2cc(N3CCN4CCOC[C@@H]4C3)cnc2[C@H](C)OC)c2c3cc(ccc31)-c1csc(n1)C[C@H](NC(=O)OC(C)(C)C)C(=O)N1CCC[C@H](N1)C(=O)OCC(C)(C)C2
ring closure, yield of all isomers (from CCn1c(-c2cc(N3CCN4CCOC[C@@H]4C3)cnc2[C@H](C)OC)c(CC(C)(C)CO)c2cc(-c3csc(C[C@H](NC(=O)OC(C)(C)C)C(=O)N4CCC[C@@H](C(=O)O)N4)n3)ccc21, EDCI/HOBt/DIPEA, DCM, 11.3 mM, 25.0 °C, 16.0 h): 52%

CO[C@@H](C)c1ncc(N2CCN(C3CC3)CC2)cc1-c1c2c3cc(ccc3n1CC(F)(F)F)-c1csc(n1)C[C@H](NC(=O)OC(C)(C)C)C(=O)N1CCC[C@H](N1)C(=O)OCC(C)(C)C2
ring closure, yield of all isomers (from CO[C@@H](C)c1ncc(N2CCN(C3CC3)CC2)cc1-c1c(CC(C)(C)CO)c2cc(-c3csc(C[C@H](NC(=O)OC(C)(C)C)C(=O)N4CCC[C@@H](C(=O)O)N4)n3)ccc2n1CC(F)(F)F, EDCI/HOBt/DIPEA, DCM, 21.07 mM, 25.0 °C, 16.0 h): 51%

CCn1c(-c2cc(N3CCN4CCOC[C@@H]4C3)cnc2[C@H](C)OC)c2c3cc(ccc31)C1=CCCN(C1)C[C@H](NC(=O)OC(C)(C)C)C(=O)N1CCC[C@H](N1)C(=O)OCC(C)(C)C2
ring closure, yield of all isomers (from CCn1c(-c2cc(N3CCN4CCOC[C@@H]4C3)cnc2[C@H](C)OC)c(CC(C)(C)CO)c2cc(C3=CCCN(C[C@H](NC(=O)OC(C)(C)C)C(=O)N4CCC[C@@H](C(=O)O)N4)C3)ccc21, EDC·HCl/HOBt/DIPEA, DCM, 11.3 mM, 0.0 °C, 2.0 h): 67%
